Reference: ChEMBL document CHEMBL4507285, “Data for DCP probe MRL-SYKi” (2021)
Active and inactive are the calls of the source. The rule behind the calls is not given here.

Assays:
[1] = molecular target: Transient receptor potential cation channel subfamily M member 6 (Homo sapiens) (UniProt Q9BX84); conditions: Compound concentration 100.0 nM
[2] = molecular target: BMP-2-inducible protein kinase (Homo sapiens) (UniProt Q9NSY1); conditions: Compound concentration 100.0 nM
[3] = molecular target: 5-hydroxytryptamine receptor 2C (Homo sapiens) (UniProt P28335); conditions: Compound concentration 10.0 uM
Chain of 5-hydroxytryptamine receptor 2C (Homo sapiens) (P28335 whole entry): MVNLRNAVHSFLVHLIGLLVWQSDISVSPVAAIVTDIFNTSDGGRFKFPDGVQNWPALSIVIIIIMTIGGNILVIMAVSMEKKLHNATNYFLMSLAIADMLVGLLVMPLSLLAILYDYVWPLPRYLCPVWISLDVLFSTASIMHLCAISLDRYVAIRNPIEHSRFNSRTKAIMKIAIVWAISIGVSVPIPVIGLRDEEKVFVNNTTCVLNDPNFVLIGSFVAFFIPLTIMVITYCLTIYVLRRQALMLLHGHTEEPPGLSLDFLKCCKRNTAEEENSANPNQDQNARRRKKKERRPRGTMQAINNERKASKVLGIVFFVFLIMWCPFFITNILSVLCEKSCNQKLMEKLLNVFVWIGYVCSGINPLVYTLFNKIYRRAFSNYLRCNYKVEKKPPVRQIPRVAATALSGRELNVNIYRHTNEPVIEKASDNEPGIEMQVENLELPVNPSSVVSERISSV

[4] = GPCRScan assay: inhibition of GABA/PBR; set-up: species or system Rattus norvegicus; radioligand conc. used [nm] 0.3 – 2.0, parental cells brain tissue
[5] = molecular target: Muscarinic acetylcholine receptor M1 (Homo sapiens) (UniProt P11229); conditions: Compound concentration 10.0 uM
[6] = molecular target: Tyrosine-protein kinase receptor TYRO3 (Homo sapiens) (UniProt Q06418); conditions: Compound concentration 100.0 nM
[7] = molecular target: Serine/threonine-protein kinase TBK1 (Homo sapiens) (UniProt Q9UHD2); conditions: Compound concentration 100.0 nM
[8] = molecular target: Calcium-dependent protein kinase 1 (Plasmodium falciparum) (UniProt P62344); conditions: Compound concentration 100.0 nM
Chain of Calcium-dependent protein kinase 1 (Plasmodium falciparum) (P62344 2-524 limits assumed): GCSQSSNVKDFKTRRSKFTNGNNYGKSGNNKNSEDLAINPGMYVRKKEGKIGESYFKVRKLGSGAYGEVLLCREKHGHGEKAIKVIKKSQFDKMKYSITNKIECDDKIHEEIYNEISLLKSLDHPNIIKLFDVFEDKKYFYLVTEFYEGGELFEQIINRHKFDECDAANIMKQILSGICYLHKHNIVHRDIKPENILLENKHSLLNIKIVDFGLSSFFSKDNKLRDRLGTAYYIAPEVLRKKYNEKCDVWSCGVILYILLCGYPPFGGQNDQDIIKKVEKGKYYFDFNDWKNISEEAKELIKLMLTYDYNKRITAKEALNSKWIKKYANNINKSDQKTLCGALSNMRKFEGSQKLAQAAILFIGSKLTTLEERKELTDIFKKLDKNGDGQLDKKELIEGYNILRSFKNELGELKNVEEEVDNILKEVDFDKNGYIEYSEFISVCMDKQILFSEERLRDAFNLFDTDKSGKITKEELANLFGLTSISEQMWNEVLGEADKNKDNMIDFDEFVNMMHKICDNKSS

[9] = molecular target: 5-hydroxytryptamine receptor 6 (Homo sapiens) (UniProt P50406); conditions: Compound concentration 10.0 uM
LIM domain kinase 1 = LIM domain kinase 1 (Homo sapiens, UniProt P53667); assay: Inhibition of LIMK1 at compound concentration of 10.0 uM using the ScanMax (DiscoverX)
[10] = molecular target: STE20-like serine/threonine-protein kinase (Homo sapiens) (UniProt Q9H2G2); conditions: Compound concentration 100.0 nM
[11] = molecular target: Activin receptor type-2B (Homo sapiens) (UniProt Q13705); conditions: Compound concentration 100.0 nM
Chain of Activin receptor type-2B (Homo sapiens) (Q13705 whole entry): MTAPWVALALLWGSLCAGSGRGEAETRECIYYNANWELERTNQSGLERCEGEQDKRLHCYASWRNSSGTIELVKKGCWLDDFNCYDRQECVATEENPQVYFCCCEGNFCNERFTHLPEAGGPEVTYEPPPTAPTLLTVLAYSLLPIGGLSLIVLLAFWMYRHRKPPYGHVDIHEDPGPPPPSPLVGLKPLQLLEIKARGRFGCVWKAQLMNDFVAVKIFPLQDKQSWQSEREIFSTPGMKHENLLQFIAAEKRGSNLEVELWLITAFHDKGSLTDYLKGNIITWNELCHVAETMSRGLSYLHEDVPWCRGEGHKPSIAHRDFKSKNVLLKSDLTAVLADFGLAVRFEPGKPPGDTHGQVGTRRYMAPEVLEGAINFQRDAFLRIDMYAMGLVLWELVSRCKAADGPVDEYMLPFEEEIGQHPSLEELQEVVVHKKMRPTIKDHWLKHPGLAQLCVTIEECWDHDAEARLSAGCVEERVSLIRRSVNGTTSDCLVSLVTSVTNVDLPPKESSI

[12] = molecular target: Cyclin-dependent kinase 4 (Homo sapiens) (UniProt P11802); conditions: Compound concentration 100.0 nM
Chain of Cyclin-dependent kinase 4 (Homo sapiens) (P11802 whole entry): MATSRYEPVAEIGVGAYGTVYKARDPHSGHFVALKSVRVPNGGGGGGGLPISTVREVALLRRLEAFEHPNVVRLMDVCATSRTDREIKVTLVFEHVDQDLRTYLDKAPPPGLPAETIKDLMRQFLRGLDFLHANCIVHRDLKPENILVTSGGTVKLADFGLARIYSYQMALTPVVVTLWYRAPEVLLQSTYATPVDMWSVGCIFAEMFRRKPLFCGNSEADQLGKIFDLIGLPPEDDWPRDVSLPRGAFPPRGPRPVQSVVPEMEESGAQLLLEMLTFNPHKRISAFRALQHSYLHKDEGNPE

[13] = molecular target: Ribosomal protein S6 kinase alpha-6 (Homo sapiens) (UniProt Q9UK32); conditions: Compound concentration 100.0 nM
Chain of Ribosomal protein S6 kinase alpha-6 (Homo sapiens) (Q9UK32 whole entry): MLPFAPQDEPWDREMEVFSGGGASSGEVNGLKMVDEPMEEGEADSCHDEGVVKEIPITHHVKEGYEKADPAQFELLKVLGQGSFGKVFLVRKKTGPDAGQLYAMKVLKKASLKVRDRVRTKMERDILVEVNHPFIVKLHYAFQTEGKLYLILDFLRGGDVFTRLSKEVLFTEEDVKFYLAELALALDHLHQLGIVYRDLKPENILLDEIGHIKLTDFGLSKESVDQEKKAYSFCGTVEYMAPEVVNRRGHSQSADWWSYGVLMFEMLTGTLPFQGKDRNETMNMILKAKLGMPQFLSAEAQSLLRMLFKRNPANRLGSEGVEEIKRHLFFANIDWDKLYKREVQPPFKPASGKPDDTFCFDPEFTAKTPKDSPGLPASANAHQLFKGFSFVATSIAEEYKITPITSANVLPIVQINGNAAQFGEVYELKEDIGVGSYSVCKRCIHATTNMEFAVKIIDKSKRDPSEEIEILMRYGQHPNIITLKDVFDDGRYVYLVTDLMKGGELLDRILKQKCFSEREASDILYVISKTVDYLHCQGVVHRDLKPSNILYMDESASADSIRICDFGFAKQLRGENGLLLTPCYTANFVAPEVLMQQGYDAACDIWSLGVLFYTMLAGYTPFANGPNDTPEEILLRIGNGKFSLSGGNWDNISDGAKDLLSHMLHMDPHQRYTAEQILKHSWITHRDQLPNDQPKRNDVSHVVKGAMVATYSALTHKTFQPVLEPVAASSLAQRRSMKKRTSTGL

[14] = molecular target: 5-hydroxytryptamine receptor 3A (Homo sapiens) (UniProt P46098); conditions: Compound concentration 10.0 uM
Chain of 5-hydroxytryptamine receptor 3A (Homo sapiens) (P46098 whole entry): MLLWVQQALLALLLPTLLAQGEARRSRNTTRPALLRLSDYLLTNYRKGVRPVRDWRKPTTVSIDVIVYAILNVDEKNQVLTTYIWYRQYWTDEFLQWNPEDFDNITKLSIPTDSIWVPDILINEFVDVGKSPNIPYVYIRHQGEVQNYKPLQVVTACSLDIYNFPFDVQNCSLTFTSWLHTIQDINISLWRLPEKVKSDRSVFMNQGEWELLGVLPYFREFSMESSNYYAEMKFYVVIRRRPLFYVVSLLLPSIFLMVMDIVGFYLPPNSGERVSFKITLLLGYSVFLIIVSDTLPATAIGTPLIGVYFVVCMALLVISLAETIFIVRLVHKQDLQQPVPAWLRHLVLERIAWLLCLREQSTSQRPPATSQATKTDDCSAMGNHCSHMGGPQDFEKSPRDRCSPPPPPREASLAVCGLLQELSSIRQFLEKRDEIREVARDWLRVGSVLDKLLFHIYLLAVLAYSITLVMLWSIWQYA

[15] = molecular target: 5-hydroxytryptamine receptor 2B (Homo sapiens, UniProt P41595); assay: GPCRScan assay: inhibition of 5-HT2B; set-up: radioligand conc. used [nm] 1.0 – 2.0, parental cells stable HEK
[16] = molecular target: Tyrosine-protein kinase Fes/Fps (Homo sapiens) (UniProt P07332); conditions: Compound concentration 100.0 nM
Chain of Tyrosine-protein kinase Fes/Fps (Homo sapiens) (P07332 whole entry): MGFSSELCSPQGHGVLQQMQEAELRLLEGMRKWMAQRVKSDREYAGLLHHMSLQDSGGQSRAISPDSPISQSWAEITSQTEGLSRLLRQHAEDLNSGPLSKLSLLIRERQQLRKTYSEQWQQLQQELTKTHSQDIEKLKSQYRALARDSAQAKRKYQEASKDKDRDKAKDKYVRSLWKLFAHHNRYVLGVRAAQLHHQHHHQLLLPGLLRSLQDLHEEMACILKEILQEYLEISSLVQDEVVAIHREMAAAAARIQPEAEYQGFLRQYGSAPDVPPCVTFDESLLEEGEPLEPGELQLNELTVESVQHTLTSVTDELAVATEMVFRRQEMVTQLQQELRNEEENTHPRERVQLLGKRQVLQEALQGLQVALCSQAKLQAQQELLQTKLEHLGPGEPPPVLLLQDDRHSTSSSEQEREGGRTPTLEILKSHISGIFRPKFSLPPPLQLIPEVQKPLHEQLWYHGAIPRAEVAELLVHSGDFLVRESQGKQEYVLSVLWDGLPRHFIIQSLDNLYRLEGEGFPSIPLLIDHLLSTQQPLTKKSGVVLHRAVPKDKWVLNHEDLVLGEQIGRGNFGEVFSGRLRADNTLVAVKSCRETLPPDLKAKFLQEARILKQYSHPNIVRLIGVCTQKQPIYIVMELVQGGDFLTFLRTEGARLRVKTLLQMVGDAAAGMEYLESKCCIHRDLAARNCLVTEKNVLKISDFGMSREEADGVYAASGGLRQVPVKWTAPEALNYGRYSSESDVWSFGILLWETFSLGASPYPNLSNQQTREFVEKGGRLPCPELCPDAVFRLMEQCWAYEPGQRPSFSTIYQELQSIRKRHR

[17] = molecular target: Serine/threonine-protein kinase TAO3 (Homo sapiens) (UniProt Q9H2K8); conditions: Compound concentration 100.0 nM
[18] = test system: Tyrosine-protein kinase ABL1 (Homo sapiens), P00519 [F317L]; conditions: Compound concentration 100.0 nM
Chain of Tyrosine-protein kinase ABL1 (Homo sapiens), P00519 [F317L] (P00519 whole entry F317L): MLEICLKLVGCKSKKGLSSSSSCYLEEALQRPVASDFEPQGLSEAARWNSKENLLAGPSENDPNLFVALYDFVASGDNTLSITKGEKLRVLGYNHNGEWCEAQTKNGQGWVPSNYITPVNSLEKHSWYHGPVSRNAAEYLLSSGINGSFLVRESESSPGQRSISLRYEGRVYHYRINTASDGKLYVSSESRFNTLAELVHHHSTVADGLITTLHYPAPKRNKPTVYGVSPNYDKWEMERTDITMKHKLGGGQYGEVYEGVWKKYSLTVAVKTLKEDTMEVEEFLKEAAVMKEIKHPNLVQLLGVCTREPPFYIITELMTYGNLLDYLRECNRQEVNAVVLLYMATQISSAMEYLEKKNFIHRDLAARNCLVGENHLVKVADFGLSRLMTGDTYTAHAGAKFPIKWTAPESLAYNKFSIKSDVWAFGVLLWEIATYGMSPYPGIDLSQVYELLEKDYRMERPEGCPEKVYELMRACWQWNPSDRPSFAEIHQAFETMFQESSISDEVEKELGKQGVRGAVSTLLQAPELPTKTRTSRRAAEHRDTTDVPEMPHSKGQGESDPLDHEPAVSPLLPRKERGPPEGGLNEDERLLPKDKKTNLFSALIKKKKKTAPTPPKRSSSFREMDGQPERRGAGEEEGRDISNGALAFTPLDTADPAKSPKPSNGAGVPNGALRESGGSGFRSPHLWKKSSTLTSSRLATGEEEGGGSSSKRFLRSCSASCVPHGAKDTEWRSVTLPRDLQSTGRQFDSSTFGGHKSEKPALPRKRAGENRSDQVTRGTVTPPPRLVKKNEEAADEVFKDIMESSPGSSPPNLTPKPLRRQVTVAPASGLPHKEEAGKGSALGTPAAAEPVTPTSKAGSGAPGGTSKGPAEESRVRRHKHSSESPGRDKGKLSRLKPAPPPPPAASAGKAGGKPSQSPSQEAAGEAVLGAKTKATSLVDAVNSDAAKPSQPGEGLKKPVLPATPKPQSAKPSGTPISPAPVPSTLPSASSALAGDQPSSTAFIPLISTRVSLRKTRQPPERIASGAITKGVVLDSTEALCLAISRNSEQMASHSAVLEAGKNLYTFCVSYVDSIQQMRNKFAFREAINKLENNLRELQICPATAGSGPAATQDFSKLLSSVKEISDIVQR

[19] = molecular target: NT-3 growth factor receptor (Homo sapiens, UniProt Q16288); assay: Invitrogen kinase assay (NTRK3)
[20] = molecular target: Sodium-dependent noradrenaline transporter (Homo sapiens, UniProt P23975); assay: GPCRScan assay: inhibition of NET; set-up: radioligand conc. used [nm] 1.3 – 5.0, parental cells stable HEK
[21] = molecular target: Proto-oncogene tyrosine-protein kinase Src (Homo sapiens, UniProt P12931); assay: Invitrogen kinase assay (SRC)
[22] = molecular target: Tyrosine-protein kinase Fyn (Homo sapiens, UniProt P06241); assay: Invitrogen kinase assay (FYN)
[23] = molecular target: Tyrosine-protein kinase SYK (Homo sapiens, UniProt P43405); assay: Inhibition of SYK at compound concentration of 10.0 uM using the ScanMax (DiscoverX)
[24] = molecular target: High affinity nerve growth factor receptor (Homo sapiens, UniProt P04629); assay: Invitrogen kinase assay (NTRK1)
[25] = molecular target: Tyrosine-protein kinase Fer (Homo sapiens, UniProt P16591); assay: Invitrogen kinase assay (FER)
[26] = molecular target: 5-hydroxytryptamine receptor 1E (Homo sapiens) (UniProt P28566); conditions: Compound concentration 10.0 uM
[27] = molecular target: Tyrosine-protein kinase ZAP-70 (Homo sapiens, UniProt P43403); assay: Invitrogen kinase assay (ZAP70)
[28] = molecular target: Tyrosine-protein kinase JAK2 (Homo sapiens, UniProt O60674); assay: Invitrogen kinase assay (JAK2)
[29] = molecular target: Tyrosine-protein kinase Fgr (Homo sapiens, UniProt P09769); assay: Invitrogen kinase assay (FGR)

SMILES | residual activity [1] [%] | residual activity [2] [%] | inhibition [3] [%] | residual activity [6] [%] | residual activity [7] [%] | residual activity [8] [%] | residual activity [10] [%] | residual activity [11] [%] | residual activity [12] [%] | residual activity [13] [%] | inhibition [14] [%] | residual activity [16] [%] | residual activity [17] [%] | residual activity [18] [%] | also measured
Cc1ccc(-c2cnc([C@@]3(O)CC[C@H](C(=O)O)C(C)(C)C3)s2)cc1Nc1cccc(C(F)(F)F)n1 [MRL-SYKi-NC] | 77.1 | 100 | 4.21 | 100 | 86.4 | 90.1 | 93.6 | 100 | 93.4 | 100 | -1.96 | 100 | 98.6 | 84.4 | Ki [4]: 774 nM; pKi [4]: 6.11; inhibition [5]: -6.43%; inhibition [9]: 6.66%; Kd (LIM domain kinase 1): > 10000 nM (not active); Ki [15]: 1060 nM
Cc1cc(Nc2nccc(C)n2)cc(-c2cnc([C@@]3(O)CC[C@H](C(=O)O)C(C)(C)C3)s2)c1 [MRL-SYKi] | 94.8 | 100 | 3.02 | 60.2 | 55.5 | 100 | 96.4 | 82.8 | 100 | 77.2 | -3.85 | 100 | 100 | 69.6 | IC50 [19]: 120 nM (not active); Ki [20]: 7710 nM; IC50 [21]: 100 nM (not active); IC50 [22]: 205 nM (not active); Kd [23]: 1.8 nM (active); IC50 [24]: 105 nM (not active); IC50 [25]: 232 nM (not active); inhibition [26]: 11.4%; IC50 [27]: 24 nM (active); IC50 [28]: 242 nM (not active); IC50 [29]: 185 nM (not active)
